Experimental data as given in US4845294A, “Diaminotetrafluoroethoxybenzenes” (Wella Aktiengesellschaft, priority 1984, dated 1989).

Assays:
Assay in all cases: Ames mutagenicity test (back mutation)
Format in all cases: cell-based
Set-up in all cases: key: -: no back mutation; (+): slight back mutuation; +: increasing back mutation; ++: increasing back mutation
[1] = system: Salmonella thyphimurium strain TA 100
Excerpt: (§1) Salmonella thyphimurium strains
(§2) without (-) and with (+) S9 - Mix

[2] = system: Salmonella thyphimurium strain TA 97
Excerpt: as §1, §2

[3] = system: Salmonella thyphimurium strain TA 98
Excerpt: as §1, §2

Compound | Ames test result, TA 100 ([1]; with (+) S9-Mix) | Ames test result, TA 100 ([1]; without (-) S9-Mix) | Ames test result, TA 97 ([2]; with (+) S9-Mix) | Ames test result, TA 97 ([2]; without (-) S9-Mix) | Ames test result, TA 98 ([3]; with (+) S9-Mix) | Ames test result, TA 98 ([3]; without (-) S9-Mix)
2,4-diaminotrifluoroethoxybenzene | (+) | - | - | - | ++ | -
Cc1cc(OC(F)(F)C(F)F)c(N)cc1N [2,4-diamino-5-tetrafluoroethoxy-toluene, 2,4-diamino-5-tetrafluoroethoxytoluene] | - | - | - | - | - | -
COc1ccc(N)cc1N [2,4-diaminoanisol] | (+) | - | + | - | ++ | -
CCOc1ccc(N)cc1N [2,4-diaminophenetol] | - | - | + | - | ++ | -
Nc1ccc(OC(F)(F)C(F)F)c(N)c1 [2,4-diaminotetrafluoroethoxybenzene] | - | - | (+) | - | + | -
